From patent publication US5942519A, “Prevention of precipitated acute urinary retention” (Merck & Co., Inc., priority 1998, dated 1999)

Assays:
[1] = test system: precipitated acute urinary retention; test: Four-year double-blind, placebo-controlled study in men with BPH: precipitated acute urinary retention; type: in vivo, human
Experimental: A total of 3040 men with moderate to severe symptoms of BPH and enlarged prostates were treated with either finasteride (17β-(N-tert-butylcarbamoyl)-3-oxo-4-aza-5α-androst-1-en-3-one,5 mg daily) or placebo in a four year double-blind, placebo-controlled study. BPH-related outcomes were assessed every 4 months. Patients on alpha blockers, antiandrogens, with a history of chronic prostatitis, recurrent urinary tract infections, or prior prostate or bladder surgery were excluded. A total of 3016 patients randomized to treatment had efficacy data and were included in the analysis of precipitated acute urinary retention; 1513 in the finasteride group and 1503 in the placebo group.
The endpoint committee, blinded to treatment group, reviewed all study-related documents related to episodes of acute urinary retention to classify the episodes as spontaneous or precipitated by other factors. All acute urinary retentions were classified by the endpoint committee as being "clearly" BPH related ("spontaneous") if there was no clear precipitating event, such as surgery within 72 hours, a precipitating medical event (e.g. stroke), or ingestion of a medication thought to precipitate retention (e.g., pseudoephedrine hydrochloride), etc. The other episodes of acute urinary retention were classified as not "clearly" BPH related ("precipitated") since there was likely to be more than one factor (including BPH) involved that precipitated the event.
Acute urinary retention was analyzed using the log-rank test for time-to-first-event and corroborated with Fisher's exact test on the cumulative incidence.

[2] = test system: human type 2 enzyme (5α-reductase); settings: cited from earlier work
[3] = test system: BPH / spontaneous acute urinary retention; settings: patients with BPH; cited from earlier work

CC(C)(C)NC(=O)[C@H]1CC[C@H]2[C@@H]3CC[C@H]4NC(=O)C=C[C@]4(C)[C@H]3CC[C@]12C [finasteride, 17β-(N-tert-butylcarbamoyl)-3-oxo-4-aza-5α-androst-1-en-3-one]
patients with an episode of precipitated acute urinary retention (percent) ([1]; 5 mg daily, 4-year study period, n=1513 finasteride, placebo 3.3%): 1.5% | patients with an episode of precipitated acute urinary retention (number) ([1]; 5 mg daily, 4-year study period, n=1513 finasteride, placebo 49 of 1503): 23 patients | reduction of the risk of having an episode of precipitated acute urinary retention ([1]; 5 mg daily, compared with placebo, over the 4-year study period): 52% | relative risk (hazard ratio) versus placebo, precipitated acute urinary retention ([1]; finasteride 5 mg daily versus placebo, 4-year study period): 0.48 | inhibition of the human type 2 enzyme (in words) [2]: potent inhibitor of the human type 2 enzyme | reducing spontaneous acute urinary retention (in words) [3]: significantly reducing spontaneous acute urinary retention | treating BPH (in words) [3]: effective in treating BPH
